Assay results taken from PubChem BioAssay (NCI).
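Step 1: Grow cells in 96-well plates. Step 2: Expose to compound for 48 hours at 5 concentrations. Step 3: Interpolate endpoints linearly; if unreached, use highest concentration. TGI: total growth inhibition.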

Columns and labels:
Assay in all cases: NCI-60 cell line screen, 48 h
MOLT-4 leukemia = system: MOLT-4 leukemia
HT29 colon = system: HT29 colon
EKVX NSCLC = system: EKVX NSCLC
SNB-19 CNS = system: SNB-19 CNS
T-47D breast = system: T-47D breast
U251 CNS = system: U251 CNS
NCI-H522 lung = system: NCI-H522 lung
MDA-MB-231 breast = system: MDA-MB-231 breast
M14 melanoma = system: M14 melanoma
MCF7 breast = system: MCF7 breast
CCRF-CEM leukemia = system: CCRF-CEM leukemia
K-562 leukemia = system: K-562 leukemia
HOP-92 NSCLC = system: HOP-92 NSCLC
NCI/ADR-RES ovarian = system: NCI/ADR-RES ovarian
HCT-116 colon = system: HCT-116 colon
NCI-H23 lung = system: NCI-H23 lung
SF-295 CNS = system: SF-295 CNS
A549 NSCLC = system: A549 NSCLC
HS 578T breast = system: HS 578T breast
HCT-15 colon = system: HCT-15 colon
CAKI-1 renal = system: CAKI-1 renal
BT-549 breast = system: BT-549 breast
SNB-75 CNS = system: SNB-75 CNS
SN12C renal = system: SN12C renal
NCI-H226 lung = system: NCI-H226 lung
RXF 393 renal = system: RXF 393 renal
TK-10 renal = system: TK-10 renal
DU-145 prostate = system: DU-145 prostate
MDA-N = system: MDA-N
SK-MEL-28 melanoma = system: SK-MEL-28 melanoma
OVCAR-5 ovarian = system: OVCAR-5 ovarian
PC-3 prostate = system: PC-3 prostate
SK-MEL-5 melanoma = system: SK-MEL-5 melanoma
HL-60(TB) leukemia = system: HL-60(TB) leukemia
786-0 renal = system: 786-0 renal
MALME-3M melanoma = system: MALME-3M melanoma
COLO 205 colon = system: COLO 205 colon
HCC-2998 colon = system: HCC-2998 colon
MDA-MB-435 = system: MDA-MB-435
UO-31 renal = system: UO-31 renal
ACHN renal = system: ACHN renal
HOP-62 NSCLC = system: HOP-62 NSCLC
OVCAR-4 ovarian = system: OVCAR-4 ovarian
OVCAR-8 ovarian = system: OVCAR-8 ovarian
OVCAR-3 ovarian = system: OVCAR-3 ovarian
KM12 colon = system: KM12 colon
SK-OV-3 ovarian = system: SK-OV-3 ovarian
SK-MEL-2 melanoma = system: SK-MEL-2 melanoma
SF-539 CNS = system: SF-539 CNS
SF-268 CNS = system: SF-268 CNS
SR leukemia = system: SR leukemia
SW-620 colon = system: SW-620 colon
UACC-257 melanoma = system: UACC-257 melanoma
A498 renal = system: A498 renal
LOX IMVI melanoma = system: LOX IMVI melanoma
NCI-H460 lung = system: NCI-H460 lung
UACC-62 melanoma = system: UACC-62 melanoma
DLD-1 colon = system: DLD-1 colon
HOP-18 NSCLC = system: HOP-18 NSCLC
SNB-78 CNS = system: SNB-78 CNS
KM20L2 colon = system: KM20L2 colon
IGROV1 ovarian = system: IGROV1 ovarian
LXFL 529 NSCLC = system: LXFL 529 NSCLC
M19-MEL melanoma = system: M19-MEL melanoma
RPMI-8226 leukemia = system: RPMI-8226 leukemia
DMS 114 small cell lung = system: DMS 114 small cell lung
DMS 273 small cell lung = system: DMS 273 small cell lung

CO[C@H]1O[C@@H]2CO[C@@H](c3ccccc3)O[C@H]2C[C@]12CCC/C=C\CO2
TGI (MOLT-4 leukemia): 32 µM
TGI (HT29 colon): 40.5 µM
TGI (EKVX NSCLC): 25.8 µM
TGI (SNB-19 CNS): > 75 µM
TGI (T-47D breast): 59.6 µM
TGI (U251 CNS): 23.5 µM
TGI (NCI-H522 lung): 23.6 µM
TGI (MDA-MB-231 breast): 39.3 µM
TGI (M14 melanoma): 41.2 µM
TGI (MCF7 breast): 35.7 µM
TGI (CCRF-CEM leukemia): 36.5 µM
TGI (K-562 leukemia): 35.7 µM
TGI (HOP-92 NSCLC): 28.4 µM
TGI (NCI/ADR-RES ovarian): 73.6 µM
TGI (HCT-116 colon): 23.5 µM
TGI (NCI-H23 lung): 68.1 µM
TGI (SF-295 CNS): > 75 µM
TGI (A549 NSCLC): > 75 µM
TGI (HS 578T breast): 40 µM
TGI (HCT-15 colon): 27.5 µM
TGI (CAKI-1 renal): > 75 µM
TGI (BT-549 breast): 23.9 µM
TGI (SNB-75 CNS): 61.8 µM
TGI (SN12C renal): 29.7 µM
TGI (NCI-H226 lung): 50.9 µM
TGI (RXF 393 renal): 28.3 µM
TGI (TK-10 renal): 59.2 µM
TGI (DU-145 prostate): > 75 µM
TGI (MDA-N): 26.9 µM
TGI (SK-MEL-28 melanoma): 26.6 µM
TGI (OVCAR-5 ovarian): > 75 µM
TGI (PC-3 prostate): 50.8 µM
TGI (SK-MEL-5 melanoma): 44.1 µM
TGI (HL-60(TB) leukemia): 54.7 µM
TGI (786-0 renal): 26.2 µM
TGI (MALME-3M melanoma): 26.4 µM
TGI (COLO 205 colon): 26.6 µM
TGI (HCC-2998 colon): 54.5 µM
TGI (MDA-MB-435): 26.5 µM
TGI (UO-31 renal): 25.2 µM
TGI (ACHN renal): 35 µM
TGI (HOP-62 NSCLC): 44.4 µM
TGI (OVCAR-4 ovarian): > 75 µM
TGI (OVCAR-8 ovarian): 25.2 µM
TGI (OVCAR-3 ovarian): 24.6 µM
TGI (KM12 colon): > 75 µM
TGI (SK-OV-3 ovarian): > 75 µM
TGI (SK-MEL-2 melanoma): 41.4 µM
TGI (SF-539 CNS): 29.1 µM
TGI (SF-268 CNS): 32.1 µM
TGI (SR leukemia): 31.8 µM
TGI (SW-620 colon): 61.1 µM
TGI (UACC-257 melanoma): > 75 µM
TGI (A498 renal): 37.2 µM
TGI (LOX IMVI melanoma): 22.9 µM
TGI (NCI-H460 lung): > 75 µM
TGI (UACC-62 melanoma): > 75 µM

CC(=O)Nc1ccc(-c2nnc(SCC(=O)Nc3ccc(C)cc3)o2)cc1
TGI (DLD-1 colon): 30.2 µM
TGI (MOLT-4 leukemia): > 100 µM
TGI (HT29 colon): 31.1 µM
TGI (U251 CNS): 33.6 µM
TGI (NCI-H522 lung): 33 µM
TGI (HOP-18 NSCLC): 31.3 µM
TGI (M14 melanoma): 29.8 µM
TGI (CCRF-CEM leukemia): > 100 µM
TGI (SNB-78 CNS): 34.7 µM
TGI (K-562 leukemia): > 100 µM
TGI (HOP-92 NSCLC): 33.4 µM
TGI (HCT-116 colon): 29.1 µM
TGI (NCI-H23 lung): 29.6 µM
TGI (SF-295 CNS): 35.5 µM
TGI (A549 NSCLC): > 100 µM
TGI (HCT-15 colon): 30 µM
TGI (CAKI-1 renal): 24.9 µM
TGI (SNB-75 CNS): 58.6 µM
TGI (KM20L2 colon): 36.5 µM
TGI (SN12C renal): 30 µM
TGI (NCI-H226 lung): 52.4 µM
TGI (RXF 393 renal): 33.2 µM
TGI (TK-10 renal): 53.6 µM
TGI (SK-MEL-28 melanoma): 31.4 µM
TGI (OVCAR-5 ovarian): 39.8 µM
TGI (SK-MEL-5 melanoma): 27.8 µM
TGI (IGROV1 ovarian): 28.6 µM
TGI (HL-60(TB) leukemia): 64.4 µM
TGI (786-0 renal): 33.4 µM
TGI (MALME-3M melanoma): 30.8 µM
TGI (COLO 205 colon): 31.6 µM
TGI (LXFL 529 NSCLC): 30.5 µM
TGI (M19-MEL melanoma): 32.9 µM
TGI (UO-31 renal): > 100 µM
TGI (ACHN renal): 70.3 µM
TGI (HOP-62 NSCLC): > 100 µM
TGI (RPMI-8226 leukemia): 74.7 µM
TGI (OVCAR-4 ovarian): 32.6 µM
TGI (OVCAR-8 ovarian): 70.8 µM
TGI (OVCAR-3 ovarian): 37.2 µM
TGI (KM12 colon): 37.8 µM
TGI (SK-OV-3 ovarian): > 100 µM
TGI (SK-MEL-2 melanoma): 34.4 µM
TGI (SF-539 CNS): 27.3 µM
TGI (SF-268 CNS): 44.2 µM
TGI (SR leukemia): 98.2 µM
TGI (DMS 114 small cell lung): 28.2 µM
TGI (SW-620 colon): 33.3 µM
TGI (UACC-257 melanoma): 42 µM
TGI (LOX IMVI melanoma): 31.8 µM
TGI (NCI-H460 lung): 42.7 µM
TGI (UACC-62 melanoma): 30.7 µM
TGI (DMS 273 small cell lung): 30.1 µM

Cn1c(O)c(C(=O)Nc2ccc([N+](=O)[O-])cc2)c(=O)n(C)c1=S
TGI (DLD-1 colon): > 35.5 µM
TGI (MOLT-4 leukemia): > 100 µM
TGI (HT29 colon): 8.33 µM
TGI (EKVX NSCLC): > 23.2 µM
TGI (SNB-19 CNS): 10.1 µM
TGI (U251 CNS): 7.67 µM
TGI (NCI-H522 lung): > 100 µM
TGI (HOP-18 NSCLC): 6.85 µM
TGI (MDA-MB-231 breast): 6.12 µM
TGI (M14 melanoma): 22.9 µM
TGI (MCF7 breast): > 100 µM
TGI (CCRF-CEM leukemia): > 100 µM
TGI (K-562 leukemia): > 50.9 µM
TGI (HOP-92 NSCLC): 4.7 µM
TGI (NCI/ADR-RES ovarian): 11 µM
TGI (HCT-116 colon): 5.63 µM
TGI (NCI-H23 lung): 3.26 µM
TGI (SF-295 CNS): 4.86 µM
TGI (A549 NSCLC): 32.5 µM
TGI (HS 578T breast): 5.85 µM
TGI (HCT-15 colon): 7.02 µM
TGI (CAKI-1 renal): 10.6 µM
TGI (SNB-75 CNS): 6.37 µM
TGI (KM20L2 colon): 20.4 µM
TGI (SN12C renal): > 70.7 µM
TGI (NCI-H226 lung): 9.85 µM
TGI (RXF 393 renal): 2.8 µM
TGI (TK-10 renal): 10.7 µM
TGI (DU-145 prostate): 11.5 µM
TGI (SK-MEL-28 melanoma): 3.68 µM
TGI (OVCAR-5 ovarian): 16.4 µM
TGI (PC-3 prostate): 5.34 µM
TGI (SK-MEL-5 melanoma): 5.84 µM
TGI (IGROV1 ovarian): 10.1 µM
TGI (HL-60(TB) leukemia): > 100 µM
TGI (786-0 renal): 8.81 µM
TGI (MALME-3M melanoma): 5.03 µM
TGI (COLO 205 colon): 19.9 µM
TGI (HCC-2998 colon): 7.23 µM
TGI (MDA-MB-435): 4.95 µM
TGI (LXFL 529 NSCLC): > 50.1 µM
TGI (M19-MEL melanoma): > 45.3 µM
TGI (UO-31 renal): 12.8 µM
TGI (ACHN renal): > 27.3 µM
TGI (HOP-62 NSCLC): 4.05 µM
TGI (RPMI-8226 leukemia): > 100 µM
TGI (OVCAR-4 ovarian): 13.5 µM
TGI (OVCAR-8 ovarian): 14.9 µM
TGI (OVCAR-3 ovarian): 8.02 µM
TGI (KM12 colon): 7.05 µM
TGI (SK-OV-3 ovarian): > 81.1 µM
TGI (SK-MEL-2 melanoma): 5.53 µM
TGI (SF-539 CNS): 4.2 µM
TGI (SF-268 CNS): 10.7 µM
TGI (SR leukemia): > 100 µM
TGI (DMS 114 small cell lung): 4.81 µM
TGI (SW-620 colon): 31.3 µM
TGI (UACC-257 melanoma): 6.36 µM
TGI (A498 renal): 2.17 µM
TGI (LOX IMVI melanoma): > 24.9 µM
TGI (NCI-H460 lung): 24.1 µM
TGI (UACC-62 melanoma): 3.64 µM
